According to US4929635A, “New derivatives of 4-vinyl benzoic acid, process for their preparation and their uses in therapeutics and as ligands” (Laboratoires Chauvin-Blache, priority 1984, dated 1990):

target: T1, cytosolic receptor of retinoic acid (C.R.A.B.P.) of rat testicles (Rattus norvegicus, UniProt P62966); test: Affinity for the cytosolic receptor of retinoic acid (C.R.A.B.P.) of rat testicles: inhibition of specific linking of tritiated retinoic acid; assay type: binding; details: ligand 4 μM; tritiated retinoic acid 20 nM; rat testicle cytosol 2 mg/ml; 16 h at 4° C., pH 7.4; unmarked retinoic acid = 100% inhibition
T1 construct: to obtain the cytosol; from tissue; host or cells: rat testicles, 105000×g cytosol
T1 sequence (P62966 whole entry): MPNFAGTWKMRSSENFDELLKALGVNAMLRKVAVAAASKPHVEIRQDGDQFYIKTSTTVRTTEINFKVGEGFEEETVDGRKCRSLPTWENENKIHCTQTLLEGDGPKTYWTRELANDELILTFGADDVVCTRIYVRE
Experimental: Affinity for the cytosolic receptor of retinoic acid (C.R.A.B.P.) of rat testicles
The affinity of the compounds of the formula I for the C.R.A.B.P. receptor is determined by measurement of the inhibition of the specific linking of tritiated retinoic acid (*AR) by the various compounds according to the method of ONG and CHYTIL (J. Biol. Chem., 1975, 250, 6113) modified:
The rat testicles thawed to 4° C. are placed in Tris-HCl 50 mM, DTE 2 mM buffer, pH 7.4, then ground in a Potter Teflon/glass grinder (three times at 800 rpm). The ground product is centrifuged at 4000×g for 10 min at 4° C.
The supernatant liquor is then centrifuged for 60 min at 105000×g at 4° C. to obtain the cytosol. The final protein concentration of the cytosol is adjusted to 2 mg/ml.
200 μl of cytosol are incubated for 16 h at 4° C. in the presence of tritiated retinoic acid 20 nM (specific activity: 30 Ci/mmole), in the presence of the ligands to be tested at the concentration of 4 μM.
The incubations are followed by treatment with charcoal-dextran (1%-0.0025%) for 30 min at 4° C. The bound radioactivity is determined by counting in liquid scintillation.

inhibition at 4 µM | SMILES
18.9% | C/C(=C\c1ccc(C(=O)O)cc1)c1ccccc1 [Compound 1]
68.5% | C/C(=C\c1ccc(C(=O)O)cc1)c1ccc(C(C)C)cc1 [Compound 3, (E)-4-[2-(4-isopropylphenyl)propenyl]benzoic acid]
18.5% | C/C(=C\c1ccc(C(=O)O)cc1)c1cccs1 [Compound 9]
27.5% | C/C(=C\c1ccc(C(=O)N2CCN(C)CC2)cc1)c1ccc(C(C)C)cc1 [Compound 11]
67.5% | C/C(=C\c1ccc(C(=O)O)cc1)c1cccc(C(C)C)c1 [Compound 12]
72.5% | C/C(=C\c1ccc(C(=O)O)cc1)c1cc(C(C)C)cs1 [Compound 13]
75% | C/C(=C\c1ccc(C(=O)O)cc1)c1ccc(C(C)C)s1 [Compound 14]
